Laboratory results as given in ChEMBL document CHEMBL1201862, “PubChem BioAssay data set” (2004).
Activity calls are given as the source filed them.

Assays:
P388 = assay: cells; format: functional; settings: Mus musculus
SN12K1 = assay: cells; format: functional; settings: Homo sapiens
P388/ADR = assay: cells; format: functional; settings: Mus musculus
Protein RecA = molecular target: T1, Protein RecA (Mycobacterium tuberculosis, UniProt P9WHJ3); assay: Fluorescence Cell-Free Homogeneous Dose Retest to Identify Inhibitors of RecA-Intein Splicing Activity. [Related pubchem assays (depositor defined):AID2097, AID2223, AID489010, AID492950]; format: functional
T1 sequence (P9WHJ3 whole entry): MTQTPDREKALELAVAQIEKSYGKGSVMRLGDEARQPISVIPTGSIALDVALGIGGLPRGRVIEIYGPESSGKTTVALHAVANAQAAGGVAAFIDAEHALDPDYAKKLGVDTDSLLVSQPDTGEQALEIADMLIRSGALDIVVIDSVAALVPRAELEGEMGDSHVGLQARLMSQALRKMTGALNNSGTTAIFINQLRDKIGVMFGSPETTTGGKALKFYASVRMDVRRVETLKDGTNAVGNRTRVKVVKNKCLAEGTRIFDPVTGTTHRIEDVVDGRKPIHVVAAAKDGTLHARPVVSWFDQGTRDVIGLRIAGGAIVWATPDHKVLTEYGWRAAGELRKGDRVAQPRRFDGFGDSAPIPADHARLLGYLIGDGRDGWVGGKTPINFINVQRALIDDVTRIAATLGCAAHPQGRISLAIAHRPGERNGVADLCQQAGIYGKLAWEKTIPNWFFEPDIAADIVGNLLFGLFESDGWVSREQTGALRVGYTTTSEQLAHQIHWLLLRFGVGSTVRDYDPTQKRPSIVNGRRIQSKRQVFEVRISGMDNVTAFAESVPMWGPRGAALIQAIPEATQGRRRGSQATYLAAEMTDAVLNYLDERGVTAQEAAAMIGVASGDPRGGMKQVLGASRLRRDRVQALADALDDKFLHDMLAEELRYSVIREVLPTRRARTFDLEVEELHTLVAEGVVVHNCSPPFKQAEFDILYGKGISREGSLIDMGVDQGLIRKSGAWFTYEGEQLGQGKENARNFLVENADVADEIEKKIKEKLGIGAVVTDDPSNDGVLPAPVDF

[1] = molecular target: T2, Replicative DNA helicase DnaB (Mycobacterium tuberculosis, UniProt P9WMR3); assay: DnaB intein splicing inhibitors, dose response, biochemical, cell-free fluorescence (AID 449749); format: functional
T2 sequence (P9WMR3 whole entry): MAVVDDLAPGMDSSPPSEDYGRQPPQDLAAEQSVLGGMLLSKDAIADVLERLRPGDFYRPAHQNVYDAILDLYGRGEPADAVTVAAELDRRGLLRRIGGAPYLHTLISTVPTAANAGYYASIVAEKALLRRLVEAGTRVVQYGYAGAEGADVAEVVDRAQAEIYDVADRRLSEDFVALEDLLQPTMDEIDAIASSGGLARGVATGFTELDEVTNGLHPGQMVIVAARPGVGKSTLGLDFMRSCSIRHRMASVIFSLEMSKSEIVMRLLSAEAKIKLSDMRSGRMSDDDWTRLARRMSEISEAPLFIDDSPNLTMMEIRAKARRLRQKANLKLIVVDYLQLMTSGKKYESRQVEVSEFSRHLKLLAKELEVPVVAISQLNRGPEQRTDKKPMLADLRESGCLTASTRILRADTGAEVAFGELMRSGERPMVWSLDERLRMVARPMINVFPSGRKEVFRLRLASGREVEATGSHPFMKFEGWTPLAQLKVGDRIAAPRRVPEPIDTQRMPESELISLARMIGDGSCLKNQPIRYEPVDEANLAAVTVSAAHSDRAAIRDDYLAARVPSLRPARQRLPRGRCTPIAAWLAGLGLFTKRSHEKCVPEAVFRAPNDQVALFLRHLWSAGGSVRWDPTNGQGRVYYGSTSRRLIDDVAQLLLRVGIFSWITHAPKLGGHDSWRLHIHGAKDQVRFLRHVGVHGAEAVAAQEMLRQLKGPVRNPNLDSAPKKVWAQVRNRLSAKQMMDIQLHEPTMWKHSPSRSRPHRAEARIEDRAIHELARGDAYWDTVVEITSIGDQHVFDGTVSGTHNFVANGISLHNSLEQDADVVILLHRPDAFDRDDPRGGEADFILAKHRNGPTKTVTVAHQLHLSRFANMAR

[2] = molecular target: T3, Eukaryotic translation initiation factor 2-alpha kinase 3 (Homo sapiens, UniProt Q9NZJ5); assay: Counterscreen assay for PERK inhibitors: Dose response cell-based high throughput screening assay to measure inhibition of PERK at 6 hours. [Related pubchem assays: 1522, 1416 ]; format: functional
T3 sequence (Q9NZJ5 whole entry): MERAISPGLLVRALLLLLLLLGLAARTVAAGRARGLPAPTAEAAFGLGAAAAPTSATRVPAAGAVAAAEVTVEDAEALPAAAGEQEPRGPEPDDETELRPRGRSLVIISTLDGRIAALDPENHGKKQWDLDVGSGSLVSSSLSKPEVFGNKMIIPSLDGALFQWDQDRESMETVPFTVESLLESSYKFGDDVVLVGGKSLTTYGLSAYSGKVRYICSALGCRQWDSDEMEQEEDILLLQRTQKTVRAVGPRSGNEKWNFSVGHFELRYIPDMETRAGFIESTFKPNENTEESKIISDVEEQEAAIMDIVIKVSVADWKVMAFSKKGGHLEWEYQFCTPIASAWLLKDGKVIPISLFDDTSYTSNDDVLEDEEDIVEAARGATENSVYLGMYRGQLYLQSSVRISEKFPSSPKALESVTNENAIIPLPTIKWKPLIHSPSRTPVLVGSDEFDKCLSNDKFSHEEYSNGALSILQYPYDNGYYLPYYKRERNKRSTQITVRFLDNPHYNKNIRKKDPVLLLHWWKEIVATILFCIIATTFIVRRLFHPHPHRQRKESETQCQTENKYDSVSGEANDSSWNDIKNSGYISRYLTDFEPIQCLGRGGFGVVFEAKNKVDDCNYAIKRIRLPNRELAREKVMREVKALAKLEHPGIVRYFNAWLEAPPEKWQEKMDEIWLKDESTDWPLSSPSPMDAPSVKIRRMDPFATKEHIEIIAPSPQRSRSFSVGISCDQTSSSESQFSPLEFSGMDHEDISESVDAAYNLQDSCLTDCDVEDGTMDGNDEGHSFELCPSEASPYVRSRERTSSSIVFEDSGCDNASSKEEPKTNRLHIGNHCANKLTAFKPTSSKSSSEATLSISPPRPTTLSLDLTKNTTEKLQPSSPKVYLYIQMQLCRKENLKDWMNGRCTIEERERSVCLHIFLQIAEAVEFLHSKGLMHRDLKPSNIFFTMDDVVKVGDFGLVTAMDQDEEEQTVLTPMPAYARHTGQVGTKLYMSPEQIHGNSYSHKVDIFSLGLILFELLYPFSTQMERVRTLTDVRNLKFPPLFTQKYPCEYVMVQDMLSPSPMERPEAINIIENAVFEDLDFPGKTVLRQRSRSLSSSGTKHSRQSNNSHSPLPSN

[3] = molecular target: T3, Eukaryotic translation initiation factor 2-alpha kinase 3; assay: Dose response cell-based high-throughput screening assay to measure PERK inhibition. [Related pubchem assays: 1416 ]; format: functional
[4] = bead-based luminescence quenchers, dual-tagged ARNT – biochemical, AlphaScreen, cherry-pick, artefact control for ARNT-TACC3 interaction inhibitor project, dose response (AID 651705); format: functional;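 further: AlphaScreen bead proximity signal that flags compounds interfering with the detection technology; potency reflects signal decrease which marks the compound as an assay artifact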
HEK293 = assay: EBV LMP1 TES2 canonical NF-kB signalling blockers – cell-based, HEK293, luciferase, cherry-pick, dose response (AID 588343); format: functional; settings: Homo sapiens
Nonstructural protein 1 = Nonstructural protein 1 (Influenza A virus, UniProt Q194T2); format: functional, Influenza A virus (A/California/07/2009(H1N1))
Nonstructural protein 1, sequence (Q194T2 whole entry): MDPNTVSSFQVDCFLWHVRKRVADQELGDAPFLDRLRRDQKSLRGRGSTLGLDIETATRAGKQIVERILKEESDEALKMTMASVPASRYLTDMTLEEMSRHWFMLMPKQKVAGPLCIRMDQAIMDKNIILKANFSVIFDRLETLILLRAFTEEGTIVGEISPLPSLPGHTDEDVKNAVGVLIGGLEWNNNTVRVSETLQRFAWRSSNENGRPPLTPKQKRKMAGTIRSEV

[5] = molecular target: T4, Heat shock factor protein 1 (Mus musculus, UniProt P38532); assay: decrease of HSF1-responsive luciferase luminescence – cell-based, NIH3T3, dose retest, confirmation (AID 2382); format: functional;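 further: NIH3T3 fibroblasts with HSF1-driven luciferase reporter stressed by proteasome inhibitor MG132; luminescence from HSF1-driven luciferase expression after 8 hours of MG132 stress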
T4 sequence (P38532 whole entry): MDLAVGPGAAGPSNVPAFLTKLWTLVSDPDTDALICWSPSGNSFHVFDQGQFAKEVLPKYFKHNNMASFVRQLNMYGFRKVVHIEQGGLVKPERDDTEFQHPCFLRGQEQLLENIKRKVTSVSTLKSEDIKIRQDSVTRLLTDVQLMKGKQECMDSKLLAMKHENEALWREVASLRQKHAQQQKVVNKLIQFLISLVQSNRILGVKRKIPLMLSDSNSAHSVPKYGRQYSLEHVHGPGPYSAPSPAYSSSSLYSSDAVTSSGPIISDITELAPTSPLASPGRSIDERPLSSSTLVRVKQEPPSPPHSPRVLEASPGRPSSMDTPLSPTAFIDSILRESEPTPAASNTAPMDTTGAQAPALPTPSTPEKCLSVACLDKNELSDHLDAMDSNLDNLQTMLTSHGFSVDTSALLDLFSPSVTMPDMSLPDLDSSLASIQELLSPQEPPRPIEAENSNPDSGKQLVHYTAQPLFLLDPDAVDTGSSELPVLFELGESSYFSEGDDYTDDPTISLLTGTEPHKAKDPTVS

[6] = molecular target: T5, Corticotropin-releasing factor receptor 2/Corticotropin-releasing factor-binding protein (Homo sapiens, UniProt P24387+Q13324); assay: activators of CRF receptor 2 with binding protein – uHTS hits, confirmation (AID 602473); format: functional; settings: read-out: EC50_Mean
T5 sequence (Q13324 whole entry): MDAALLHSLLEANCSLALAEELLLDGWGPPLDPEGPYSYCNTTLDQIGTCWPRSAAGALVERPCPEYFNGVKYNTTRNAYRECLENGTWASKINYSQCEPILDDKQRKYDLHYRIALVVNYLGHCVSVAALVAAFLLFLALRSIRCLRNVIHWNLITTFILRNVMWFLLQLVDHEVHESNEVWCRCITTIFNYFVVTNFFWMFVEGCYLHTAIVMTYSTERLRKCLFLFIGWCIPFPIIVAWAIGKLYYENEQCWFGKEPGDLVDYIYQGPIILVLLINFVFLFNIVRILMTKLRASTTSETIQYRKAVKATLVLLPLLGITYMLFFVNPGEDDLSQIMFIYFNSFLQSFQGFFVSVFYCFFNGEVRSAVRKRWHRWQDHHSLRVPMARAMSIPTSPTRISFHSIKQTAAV
T5 sequence (P24387 whole entry): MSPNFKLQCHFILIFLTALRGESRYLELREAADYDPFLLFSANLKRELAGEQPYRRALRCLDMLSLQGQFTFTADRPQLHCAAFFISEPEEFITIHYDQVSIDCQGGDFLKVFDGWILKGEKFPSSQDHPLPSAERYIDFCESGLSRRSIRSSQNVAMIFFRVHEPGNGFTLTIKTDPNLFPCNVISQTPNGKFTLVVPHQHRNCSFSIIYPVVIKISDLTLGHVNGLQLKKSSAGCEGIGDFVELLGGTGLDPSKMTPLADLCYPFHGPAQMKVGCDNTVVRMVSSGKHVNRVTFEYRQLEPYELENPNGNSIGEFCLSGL

Cc1[nH]c(=O)[nH]c(=O)c1/C=C/C(=O)NC(CO)C[S+]([O-])C[S+](C)[O-] (stereo not given)
GI50 (P388): 19.4 µM (inactive)
GI50 (SN12K1): 9.38 µM (inactive)
GI50 (P388/ADR): 23.2 µM (inactive)

CN1N=C(C(C)(C)C)CC1=O
EC50 (Protein RecA): 2.5 µM (active)
AC50 [1]: 9.6 µM (active)
EC50 [2]: > 55.7 µM (not active)
EC50 [3]: > 55.7 µM (not active)

N#CC1=C(N)Oc2c(ccc3cccnc23)C1c1ccncc1 (stereo not given)
AC50 [4]: 99.4 µM (active)

Cc1ccc(C(=O)Nc2cccc(C(F)(F)F)c2)cc1Nc1[nH]cnc2ncnc1-2
AC50 (HEK293): 7.93 µM (active)

Cc1cc(O)nc(NN=Cc2cc(Br)ccc2O)n1
IC50 (Nonstructural protein 1): 12.2 µM (active)
AC50 (HEK293): 5.26 µM (active)

O=C1CSc2sc(=S)sc2S1
GI50 (P388): 31.2 µM (inactive)
GI50 (SN12K1): > 100 µM (inactive)
GI50 (P388/ADR): 27.7 µM (inactive)

CC(=O)OCC1OC(n2cc(F)c(=O)[nH]c2=O)C(N)C(OC(C)=O)C1OC(C)=O (stereo not given)
GI50 (P388): > 100 µM (inactive)
GI50 (SN12K1): > 100 µM (inactive)
GI50 (P388/ADR): > 100 µM (inactive)

O=C1Nc2ccccc2Nc2ccncc21
GI50 (P388): > 100 µM (inactive)
GI50 (SN12K1): > 100 µM (inactive)
GI50 (P388/ADR): > 31.6 µM (inactive)

C[S+]([O-])c1cc(=O)c2ccccc2s1 (stereo not given)
GI50 (P388): 1.83 µM (inactive)
GI50 (SN12K1): 17.8 µM (inactive)
GI50 (P388/ADR): 2.66 µM (inactive)

Cc1ccccc1-n1nc(C)c2cc(C(=O)NC3CC3)sc21
AC50 (HEK293): 196 µM (active)

CCN1C(=O)C(=CNc2ccc(N3CCOCC3)c(Br)c2)C(=O)N(CC)C1=S
EC50 [5]: > 195 µM (not active)
EC50 [6]: > 53 µM (inactive)
AC50 (HEK293): > 350 µM (inactive)

C/C=C1\NC(=O)[C@H]2CSSCCC=C[C@H](CC(=O)N[C@H](C(C)C)C(=O)N2)OC(=O)[C@H](C(C)C)NC1=O
GI50 (P388): < 0.01 µM (active)
GI50 (SN12K1): < 0.01 µM (active)
GI50 (P388/ADR): < 0.0241 µM (active)
